Patent US10392643B2, “Methods of using acyl-CoA synthetase for biosynthetic production of acyl-CoAs” (Conagen Inc., priority 2013, dated 2019)

System: ghost pepper ACS1
Assay: HPLC-based method to measure the activity of ghost pepper ACS1 against carboxylic acids
Format: biochemical, ghost chili pepper
Details: for ACS1 activity with 8-methyl-trans-6-nonenoic acid or 8-methylnonanoic acid as a substrate (FIG. 9): HPLC profiles of enzymatic products, 6E compared with 8M; for activities of ACS1 against various carboxylic acids (FIG. 8): 200 μM carboxylic acids as substrate, 30 min, acyl-CoA formation by HPLC at 257 nm, 100 mM Tri buffer, pH8.0 (FIG. 8 legend)
Method: C2, acetic acid; C4, butyric acid; C6, hexanoic acid, C8,caprylic acid; C10, capric acid; C12, lauric acid; C14, myristic acid; C16, palmitic acid; C18, stearic acid. The assay was performed in 100 mM Tri buffer, pH8.0.
Applicants used an HPLC-based method to measure the activity of ghost pepper ACS1 (Chen et al., 2011). Briefly, reaction mixtures (400 μL) contained 0.1 M Tris-HCl, […], 2 mM DTT, 5 mM ATP, 10 mM MgCl2, 0.5 mM CoA, 0.1% Triton and 200 μM carboxylic acids. The reaction was initiated by adding 20 μl of purified enzyme and stopped after 30 min by addition of 20 μl al acetic acid. HPLC was performed with Dionex-UltiMate® 3000 LC Systems (Thermo Scientific) using an Acclaim® 120 C18 reversed-phase column (Thermo Scientific; 3 μ, 120 Å, 150×3 mm). The mobile phase consisted of solvent A (0.1% trifluoroacetic acid) and solvent B (acetonitrile). The gradient elution procedure was as follows: 0 to 5 min, 5% of B; 5 to 9 min, a linear gradient from 5 to 80% of B; 9 to 11 min, 80% of B; 11 to 12 min, 5% of B. The flow rate was 0.6 ml/min. The diode array detector collected data in the 200- to 400-nm range. For detection and quantification of substrate and products, peak areas were measured at 257 nm.

| SMILES | ACS1 activity with 8-methyl-trans-6-nonenoic acid or 8-methylnonanoic acid as a substrate (FIG. 9) | activities of ACS1 against various carboxylic acids (FIG. 8) |
| --- | --- | --- |
| CC(C)/C=C/CCCCC(=O)O [6E, 8-methyl-trans-6-nonenoic acid] | higher activity |  |
| CC(C)CCCCCCC(=O)O [8M, 8-methylnonanoic acid] | showed activities |  |
| CC(=O)O [acetic acid] |  | did not show any activity |
| CCCC(=O)O [butyric acid] |  | did not show any activity |
| CCCCCCCCCC(=O)O [capric acid] |  | highest activity |
